Source: patent US11807624B2, “Substituted pyrimidinones as agonists of the APJ receptor” (AMGEN INC., priority 2018, dated 2023)

Biological target: human APJ receptor (Homo sapiens (Human), UniProt P35414)
Assay: [35S]GTPγS binding assay (hAPJ SPA)
Type: biochemical
Conditions: membranes from CHO cells stably expressing human APJ receptor, read-out: Activity hAPJ SPA EC50 IP
Description: [^35S]GTPγS Binding The human APJ receptor was cloned by polymerase chain reaction and the gene encoding the receptor was subcloned in pFLAG-CMV™-3 expression vector (Sigma, Saint Louis, Mo. USA) in-house at Amgen. A GTPγS binding assay was performed on membranes prepared from CHO cells stably expressing human APJ receptor. The optimum experimental conditions for the concentrations of GDP, MgCl2, and NaCl in the assay buffer were initially determined. […] Incubation was at RT for 90 min and the microplate was read using a ViewLux™ ultra HTS Microplate Imager (PerkinElmer, Inc.). All the results presented are means of several independent experiments and analyzed by non-linear regression methods using the commercially available program Prism (GraphPad, San Diego, Calif.) providing the EC50 values detailed in Table 3.

Chain of human APJ receptor (P35414 whole entry): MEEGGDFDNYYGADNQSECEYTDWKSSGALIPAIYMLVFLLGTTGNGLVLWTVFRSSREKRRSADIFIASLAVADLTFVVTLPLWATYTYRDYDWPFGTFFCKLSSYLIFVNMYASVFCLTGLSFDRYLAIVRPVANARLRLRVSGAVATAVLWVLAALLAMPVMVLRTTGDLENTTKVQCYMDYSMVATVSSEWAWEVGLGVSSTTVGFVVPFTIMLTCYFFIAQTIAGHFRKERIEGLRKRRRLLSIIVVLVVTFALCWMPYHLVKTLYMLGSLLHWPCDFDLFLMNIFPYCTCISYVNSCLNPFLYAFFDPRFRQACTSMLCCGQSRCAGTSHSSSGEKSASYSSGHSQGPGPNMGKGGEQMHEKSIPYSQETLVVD

CCCCc1nc(O)c(NS(=O)(=O)[C@@H](C)[C@H](C)c2ncc(F)cn2)c(=O)n1-c1c(OC)cccc1OC [Example 4.2, (2S,3R)-N-(2-butyl-1-(2,6-dimethoxyphenyl)-4-hydroxy-6-oxo-1,6-dihydropyrimidin-5-yl)-3-(5-fluoropyrimidin-2-yl)butane-2-sulfonamide] and CCCCc1nc(O)c(NS(=O)(=O)C[C@@H](C)c2ncc(F)cn2)c(=O)n1-c1c(OC)cccc1OC (single isomer, unassigned) [Example 4.6, (S)-N-(2-butyl-1-(2,6-dimethoxyphenyl)-4-hydroxy-6-oxo-1,6-dihydropyrimidin-5-yl)-2-(5-fluoropyrimidin-2-yl)propane-1-sulfonamide or (R)-N-(2-butyl-1-(2,6-dimethoxyphenyl)-4-hydroxy-6-oxo-1,6-dihydropyrimidin-5-yl)-2-(5-fluoropyrimidin-2-yl)propane-1-sulfonamide] are within 1.5-fold of each other in EC50: 27 nM for the first, 20 nM for the second.

First: CCCCc1nc(O)c(NS(=O)(=O)C2CCCCC2)c(=O)n1-c1c(OC)cccc1OC [Example 4.9, N-(2-butyl-1-(2,6-dimethoxyphenyl)-4-hydroxy-6-oxo-1,6-dihydro-5-pyrimidinyl)cyclohexanesulfonamide]
Second: CCCCc1nc(O)c(NS(=O)(=O)C(C)C)c(=O)n1-c1c(OC)cccc1OC [Example 4.1, N-(2-butyl-1-(2,6-dimethoxyphenyl)-4-hydroxy-6-oxo-1,6-dihydropyrimidin-5-yl)propane-2-sulfonamide]
The EC50 of the first is 3.9-fold lower: 193 nM for the first, 745 nM for the second.

CCCCc1nc(O)c(NS(=O)(=O)c2ccccc2)c(=O)n1-c1c(OC)cccc1OC [Example 4.4a, N-(2-butyl-1-(2,6-dimethoxyphenyl)-4-hydroxy-6-oxo-1,6-dihydropyrimidin-5-yl)benzenesulfonamide] and CCCCc1nc(O)c(NS(=O)(=O)Cc2ccccc2)c(=O)n1-c1c(OC)cccc1OC [Example 4.3, N-(2-butyl-1-(2,6-dimethoxyphenyl)-4-hydroxy-6-oxo-1,6-dihydropyrimidin-5-yl)-1-phenylmethanesulfonamidesulfonamide] are within 1.5-fold of each other in EC50: 244 nM for the first, 194 nM for the second.

Going from COc1cccc(OC)c1-n1c(C2CCCC2)nc(O)c(NS(=O)(=O)CCc2ncc(F)cn2)c1=O [Example 4.17, N-[2-cyclopentyl-1-(2,6-dimethoxyphenyl)-4-hydroxy-6-oxo-pyrimidin-5-yl]-2-(5-fluoropyrimidin-2-yl)ethanesulfonamide] to CCCCc1nc(O)c(NS(=O)(=O)CCc2ncc(F)cn2)c(=O)n1-c1c(OC)cccc1OC [Example 4.0, N-(2-Butyl-1-(2,6-dimethoxyphenyl)-4-hydroxy-6-oxo-1,6-dihydropyrimidin-5-yl)-2-(5-fluoropyrimidin-2-yl)ethane-1-sulfonamide], the EC50 rises from 2.8 nM to 30 nM (11-fold). The first is the more potent here.

First: CCCCc1nc(O)c(NS(=O)(=O)CCc2ccccc2)c(=O)n1-c1c(OC)cccc1OC [Example 4.4b, N-(2-butyl-1-(2,6-dimethoxyphenyl)-4-hydroxy-6-oxo-1,6-dihydropyrimidin-5-yl)-2-phenylethane-1-sulfonamide]
Second: CCCCc1nc(O)c(NS(=O)(=O)C[C@H](C)c2ncc(F)cn2)c(=O)n1-c1c(OC)cccc1OC (single isomer, unassigned) [Example 4.5, (R)-N-(2-butyl-1-(2,6-dimethoxyphenyl)-4-hydroxy-6-oxo-1,6-dihydropyrimidin-5-yl)-2-(5-fluoropyrimidin-2-yl)propane-1-sulfonamide or (S)-N-(2-butyl-1-(2,6-dimethoxyphenyl)-4-hydroxy-6-oxo-1,6-dihydropyrimidin-5-yl)-2-(5-fluoropyrimidin-2-yl)propane-1-sulfonamide]
The EC50 of the first is 18-fold higher: 193 nM for the first, 11 nM for the second. The second is the more potent here.

CCCCc1nc(O)c(NS(=O)(=O)[C@H]2CCCN(c3ncc(F)cn3)C2)c(=O)n1-c1c(OC)cccc1OC (single isomer, unassigned) [Example 4.7, (S)-N-(2-butyl-1-(2,6-dimethoxyphenyl)-4-hydroxy-6-oxo-1,6-dihydropyrimidin-5-yl)-1-(5-fluoropyrimidin-2-yl)piperidine-3-sulfonamide or (R)-N-(2-butyl-1-(2,6-dimethoxyphenyl)-4-hydroxy-6-oxo-1,6-dihydropyrimidin-5-yl)-1-(5-fluoropyrimidin-2-yl)piperidine-3-sulfonamide] and CCCCc1nc(O)c(NS(=O)(=O)[C@@H](C)[C@H](OC)c2ncc(C)cn2)c(=O)n1-c1c(OC)cccc1OC [Example 4.8, (1R,2S)-N-(2-butyl-1-(2,6-dimethoxyphenyl)-4-hydroxy-6-oxo-1,6-dihydropyrimidin-5-yl)-1-methoxy-1-(5-methylpyrimidin-2-yl)propane-2-sulfonamide] are within 1.5-fold of each other in EC50: 78 nM for the first, 86 nM for the second.

COc1cccc(OC)c1-n1c(-c2ccccc2)nc(O)c(NS(=O)(=O)CCc2ncc(F)cn2)c1=O [Example 4.24, N-[1-(2,6-dimethoxyphenyl)-4-hydroxy-6-oxo-2-phenyl-pyrimidin-5-yl]-2-(5-fluoropyrimidin-2-yl)ethanesulfonamide] showed an EC50 of 1.5 nM.

Biological target: human APJ-AT1R (angiotensin Type 1) double stable CHO cell line (Homo sapiens (Human), UniProt P35414)
Sequence (P35414 whole entry): as above
Assay: IP1 accumulation (TR-FRET), APJ-AT1R double stable CHO cell line
Type: cell-based
Conditions: in the presence of AngII and APJ small molecule agonists
Description: Single and double stable recombinant cell lines were generated for human APJ and the AT1R receptor in CHO K1 cells tagged either with FLAG or hemagglutinin (HA) tag. Briefly, the CHO-K1 APJ/AT1R cells were seeded in culture medium of DMEM-F12 and 10% FBS at a density of 15 k/well in a 96 well plate overnight. The next day, the culture medium was replaced with medium containing no serum for 4 hours. The compound AngII at a range of concentrations (1 pM-10 μM) with or without different concentrations of APJ agonists were diluted in stimulation buffer and added to the cell plate. The plate was sealed and incubated for 1 hour. This was followed by addition of IP-d2 conjugate followed by europium cryptate antibody conjugate into the wells. The plate was sealed, followed with incubation for 2 hours at RT. Time-resolved fluorescence resonance energy (TR-FRET) at 620 nm and 665 nm was measured after 2 horns with an Envision reader. The signal ratios and delta F were calculated and the amount of IP1 produced was inversely proportional to the TR-FRET ratio, 665/620 nm.

For CCCCc1nc(Cl)c(CO)n1Cc1ccc(-c2ccccc2-c2nn[nH]n2)cc1 [losartan], the “effect of AT1R blockade on APJ agonist-induced cooperativity” value was “relieved this cooperativity and resulted in synergistic effects of enhancing the efficacy of the APJ receptor”.

Tested on: heart failure rats
Assay: Cardiac function in heart failure rats in vivo
Set-up: species or system rat
Conditions: captopril alone, acute settings
Excerpt: The interaction between […] (ACE2) and Apelin biology is complicated. To investigate the interaction between the Apelin-APJ and ACE signalling pathways, we examined the improvement in cardiac function with APJ small molecule agonists in the presence of ACE inhibitor captopril in heart failure rats in vivo. […] However, in the presence of an APJ agonist, there was a shift in potency to the left with marked improvement in contractility and ejection fraction without changes in heart rate. These findings provide a new reference for the understanding of the regulation of ACE2 for the renin angiotensin aldosterone system (RAAS), independent of AT1R signaling and offer new potential drug targets for the treatment of diseases such as hypertension and heart failure. This work clearly establishes that combination of an agonist of the APJ receptor with an ARB such as losartan and/or with an ACE inhibitor such as captopril which may play an important role in providing greater efficacy in treating heart failure patients, for example in improving contractility and ejection fraction without changing the heart rate.

For C[C@H](CS)C(=O)N1CCC[C@H]1C(=O)O [Captopril, captopril], the “improvement in contractility or ejection fraction” value was “does not show a marked improvement in contractility or ejection fraction acutely”.

Biological target: human AT1R receptor expressed in the CHO cell line (Homo sapiens (Human), UniProt P30556)
Sequence (P30556 whole entry): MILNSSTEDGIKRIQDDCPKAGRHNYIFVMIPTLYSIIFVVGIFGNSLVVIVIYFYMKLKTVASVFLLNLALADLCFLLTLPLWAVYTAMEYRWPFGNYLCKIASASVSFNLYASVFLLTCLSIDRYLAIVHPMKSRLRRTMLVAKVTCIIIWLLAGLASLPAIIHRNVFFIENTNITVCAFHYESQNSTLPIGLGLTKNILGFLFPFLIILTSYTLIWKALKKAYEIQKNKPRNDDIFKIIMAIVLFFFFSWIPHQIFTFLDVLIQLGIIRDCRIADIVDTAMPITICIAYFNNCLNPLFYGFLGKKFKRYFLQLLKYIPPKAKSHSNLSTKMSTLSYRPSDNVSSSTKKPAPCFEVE
Assay: not given
Conditions: AT1R expressed alone, no APJ expression

With pyr apelin-13 the “cooperativity on AngII-induced IP1 response” value was “no positive cooperativity observed”.

Tested on: isolated cardiomyocyctes
Assay: not given
Conditions: isolated cardiomyocytes, exogenous apelin; cited from earlier work

For apelin, the “increase in sarcomere shortening” value is given as “up to 140%”.
